Source: patent publication US20120129843A1, “PYRIDYL-THIAZOLYL INHIBITORS OF PRO-MATRIX METALLOPROTEINASE ACTIVATION” (priority 2010, published 2012)
Where a name gives a salt, the structure may show the parent alone.

Experiments:
[1] = target: T1, proMMP9(20-445;ΔFnII) (SEQ ID NO:6) (Homo sapiens, UniProt P14780, DEL216-390); assay: ThermoFluor binding assay with proMMP9(20-445;ΔFnII)
T1 construct: start methionine (N); made in house; host or cells: E. coli BL21(DE3) RIL
T1 sequence (P14780 with tags, fused parts or gaps DEL216-390): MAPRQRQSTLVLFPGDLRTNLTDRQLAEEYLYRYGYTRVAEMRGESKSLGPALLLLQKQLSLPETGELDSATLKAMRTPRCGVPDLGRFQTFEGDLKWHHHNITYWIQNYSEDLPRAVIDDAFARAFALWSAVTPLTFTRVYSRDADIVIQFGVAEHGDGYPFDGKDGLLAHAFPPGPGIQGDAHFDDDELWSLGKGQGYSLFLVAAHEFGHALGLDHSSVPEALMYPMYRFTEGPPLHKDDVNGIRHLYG
Protocol: (§1) The ThermoFluor® (TF) assay is a 384-well plate-based binding assay that measures thermal stability of proteins (Biomol Screen 2001, 6, 429-40; Biochemistry 2005, 44, 5258-66). The experiments were carried out using instruments available from Johnson & Johnson Pharmaceutical Research & Development, LLC. TF dye used in all experiments was […] (1,8-ANS) (Invitrogen: A-47).
(§2) Compounds were arranged in a pre-dispensed plate (Greiner Bio-one: 781280), wherein compounds were serially diluted in 100% DMSO across 11 columns within a series. Columns 12 and 24 were used as DMSO reference and contained no compound. For multiple compound concentration-response experiments, the compound aliquots ([…]) were robotically predispensed directly into black 384-well polypropylene PCR microplates (Abgene: TF-0384/k) using a Cartesian Hummingbird liquid handler (DigiLab, Holliston, Mass.). Following compound dispense, protein and dye solutions were added to achieve the final assay volume of 3 μL. The assay solutions were overlayed with 1 μL of silicone oil (Fluka, type DC 200: 85411) to prevent evaporation.
(§3) Assay plates were robotically loaded onto a thermostatically controlled PCR-type thermal block and then heated from 40 to 90° C. at a ramp-rate of 1° C./min for all experiments. Fluorescence was measured by continuous illumination with UV light (Hamamatsu LC6) supplied via fiber optics and filtered through a band-pass filter (380-400 nm; >60D cutoff). Fluorescence emission of the entire 384-well plate was detected by measuring light intensity using a CCD camera (Sensys, Roper Scientific) filtered to detect 500±25 nm, resulting in simultaneous and independent readings of all 384 wells. A single image with 20-sec exposure time was collected at each temperature, and the sum of the pixel intensity in a given area of the assay plate was recorded vs temperature and fit to standard equations to yield the Tm (J Biomol Screen 2001, 6, 429-40).
(§4) Thermodynamic parameters necessary for fitting compound binding for each proMMP were estimated by differential scanning calorimetry (DSC) and from ThermoFluor® data. The heat capacity of unfolding for each protein was estimated from the molecular weight and from ThermoFluor® dosing data.
ThermoFluor® with proMMP9(20-445;ΔFnII) (SEQ ID NO:6)
The protein sample preparations included a desalting buffer exchange step via a PD-10 gravity column (GE Healthcare). The desalting buffer exchange was performed prior to diluting the protein to the final assay concentration of 2.8 μM proMMP9(20-445;ΔFnII) (SEQ ID NO:6). The concentration of proMMP9(20-445;ΔFnII) (SEQ ID NO:6) was determined spectrophotometrically based on a calculated extinction coefficient of ε280=39880 M^−1cm^−1, a calculated molecular weight of 28.2 kDa, and calculated pI of 5.5. ThermoFluor® reference conditions were define as follows: 80 μg/mL (2.8 μM) proMMP9(20-445;ΔFnII) (SEQ ID NO:6), 50 μM 1,8-ANS, pH 7.0 Buffer (50 mM HEPES pH 7.0, 100 mM NaCl, 0.001% Tween-20, 2.5 mM MgCl2, 300 μM CaCl2). The thermodynamic parameters for proMMP9(20-445;ΔFnII) (SEQ ID NO:6) are as follows: Tm (° C.)=72 (+/−0.1), ΔUH(Tm) (cal mol^−1)=160000(+/−5000), ΔUS(Tm) (cal mol^−1 K^−1)=434, ΔUCp (cal mol^−1 K^−1)=2400.

[2] = target: T2, proMMP9(67-444;ΔFnII) (SEQ ID NO:5) (Homo sapiens, UniProt P14780, DEL216-390); assay: ThermoFluor binding assay with proMMP9(67-444;ΔFnII)
T2 construct: start methionine (N); made in house; host or cells: E. coli BL21(DE3) RIL
T2 sequence (P14780 with tags, fused parts or gaps DEL216-390): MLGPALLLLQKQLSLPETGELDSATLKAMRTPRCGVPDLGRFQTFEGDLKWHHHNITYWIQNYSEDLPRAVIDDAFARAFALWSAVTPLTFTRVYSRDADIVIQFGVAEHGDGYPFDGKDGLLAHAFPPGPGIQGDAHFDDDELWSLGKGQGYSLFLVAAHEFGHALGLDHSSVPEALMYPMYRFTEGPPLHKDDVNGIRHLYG
Protocol: as §1, §2, §3, §4
ThermoFluor® with proMMP9(67-444;ΔFnII) (SEQ ID NO:5)
The protein sample preparations had to include a desalting buffer exchange step via a PD-10 gravity column (GE Healthcare). The desalting buffer exchange was performed prior to diluting the protein to the final assay concentration of 3.5 μM proMMP9(67-444;ΔFnII) (SEQ ID NO:5). The concentration of proMMP9(67-444;ΔFnII) (SEQ ID NO:5) was determined spectrophotometrically based on a calculated extinction coefficient of ε280=33900 M^−1cm^−1, a calculated molecular weight of 22.6 kDa, and calculated pI of 5.20. ThermoFluor® reference conditions were defined as follows: 80 μg/mL (3.5 μM) proMMP9(67-444;ΔFnII) (SEQ ID NO:5), 50 μM 1,8-ANS, pH 7.0 Buffer (50 mM HEPES pH 7.0, 100 mM NaCl, 0.001% Tween-20, 2.5 mM MgCl2, 300 μM CaCl2). The thermodynamic parameters for proMMP9(67-444;ΔFnII) (SEQ ID NO:5) are as follows: Tm (° C.)=63 (+/−0.1), ΔUH(Tm) (cal mol^−1)=105000(+/−5000), ΔUS(Tm) (cal mol^−1 K^−1)=[…], ΔUCp (cal mol^−1 K^−1)=2000.

[3] = target: T3, full-length proMMP9(1-707) (SEQ ID NO:1), activation by catalytic MMP3 (Homo sapiens, UniProt P14780, R574P); assay: proMMP9/MMP3 P126 Activation Assay; type: biochemical
T3 construct: made in house; host or cells: HEK293 (proMMP9, secreted); E. coli (MMP3)
T3 sequence (P14780 20-707 R574P): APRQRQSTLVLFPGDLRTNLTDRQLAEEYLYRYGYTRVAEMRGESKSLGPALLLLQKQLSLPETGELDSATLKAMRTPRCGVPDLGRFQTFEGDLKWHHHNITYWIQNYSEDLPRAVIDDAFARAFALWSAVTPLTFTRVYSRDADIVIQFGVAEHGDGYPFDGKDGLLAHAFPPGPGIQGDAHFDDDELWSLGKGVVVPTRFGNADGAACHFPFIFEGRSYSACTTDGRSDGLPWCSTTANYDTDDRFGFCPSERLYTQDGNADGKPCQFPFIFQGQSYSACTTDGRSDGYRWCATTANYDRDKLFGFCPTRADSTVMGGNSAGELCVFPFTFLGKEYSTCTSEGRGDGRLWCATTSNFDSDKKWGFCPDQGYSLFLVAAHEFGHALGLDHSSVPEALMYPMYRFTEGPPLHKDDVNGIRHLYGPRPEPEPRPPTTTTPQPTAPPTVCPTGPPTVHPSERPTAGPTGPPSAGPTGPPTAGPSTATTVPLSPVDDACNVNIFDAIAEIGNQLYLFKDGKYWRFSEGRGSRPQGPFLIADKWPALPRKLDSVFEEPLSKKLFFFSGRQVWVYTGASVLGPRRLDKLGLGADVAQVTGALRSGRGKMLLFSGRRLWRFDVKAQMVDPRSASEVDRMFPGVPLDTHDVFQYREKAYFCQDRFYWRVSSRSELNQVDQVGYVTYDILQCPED
Protocol: proMMP9/MMP3 P126 Activation Assay
The reaction volume was 50 μL. […] Reactivity of residual MMP3 towards P-126 substrate was minimal under these conditions.

| SMILES | Kd [1] [nM] | Kd [2] [nM] | IC50 [3] [nM] |
| --- | --- | --- | --- |
| COc1cc(C(N)=O)ccc1Nc1nc(-c2cccnc2)cs1 [Example 6, 3-Methoxy-4-(4-pyridin-3-yl-thiazol-2-ylamino)-benzamide] | 70000 | 11000 | 11000 |
| COc1cc(C)c(C(N)=O)cc1Nc1nc(-c2ccc(N3CCN(C)CC3)nc2)cs1 [Example 7, 4-Methoxy-2-methyl-5-{4-[6-(4-methyl-piperazin-1-yl)-pyridin-3-yl]-thiazol-2-ylamino}-benzamide.TFA] | 1200 | 3900 | 2400 |
| CC(C)Cc1ccc(C(N)=O)cc1Nc1nc(-c2ccc(N3CCN(C)CC3)nc2)cs1 [Example 8, 4-Isobutyl-3-{4-[6-(4-methyl-piperazin-1-yl)-pyridin-3-yl]-thiazol-2-ylamino}-benzamide.TFA] | 370 | 2900 | 1800 |
| CC(C)Oc1ccc(S(C)(=O)=O)cc1Nc1nc(-c2cccnc2)cs1 [Example 10, (2-Isopropoxy-5-methanesulfonyl-phenyl)-(4-pyridin-3-yl-thiazol-2-yl)-amine.TFA] | 660 | 3500 | 2600 |
| CCS(=O)(=O)c1ccc(OC)c(Nc2nc(-c3cccnc3)cs2)c1 [Example 11, (5-Ethanesulfonyl-2-methoxy-phenyl)-(4-pyridin-3-yl-thiazol-2-yl)-amine.TFA] | 5900 | 16000 | – |
| CC(C)Oc1ccc(C#N)cc1Nc1nc(-c2cccnc2)cs1 [Example 16, 4-Isopropoxy-3-(4-pyridin-3-yl-thiazol-2-ylamino)-benzonitrile.HBr] | 20000 | 2900 | 3200 |
| CC(C)Oc1ccc(C(N)=O)cc1Nc1nc(-c2ccnc(N3CCN(C)CC3)c2)cs1 [Example 28, 4-Isopropoxy-3-{4-[2-(4-methyl-piperazin-1-yl)-pyridin-4-yl]-thiazol-2-ylamino}-benzamide.TFA] | 82 | 990 | 210 |
| COc1ccc(S(N)(=O)=O)cc1Nc1nc(-c2ccc(N3CCN(C)CC3)nc2)cs1 [Example 29, 4-Methoxy-3-{4-[6-(4-methyl-piperazin-1-yl)-pyridin-3-yl]-thiazol-2-ylamino}-benzenesulfonamide] | 930 | 1600 | 1400 |
| CC(C)Oc1ccc(S(N)(=O)=O)cc1Nc1nc(-c2ccc(C(=O)NC3CN4CCC3CC4)nc2)cs1 (stereo not shown) [Example 86, 5-(2-((2-Isopropoxy-5-sulfamoylphenyl)amino)thiazol-4-yl)-N-(1-azabicyclo[2.2.2]octan-3-yl)picolinamide.TFA] | 460 | – | 400 |

Second part, the compound after the results:

| Kd [1] [nM] | Kd [2] [nM] | IC50 [3] [nM] | SMILES |
| --- | --- | --- | --- |
| 310 | – | 140 | CC(C)Oc1ccc(S(N)(=O)=O)cc1Nc1nc(-c2ccc(N3CCN(S(C)(=O)=O)CC3)nc2)cs1 [Example 83, 4-Isopropoxy-3-((4-(6-(4-(methylsulfonyl)piperazin-1-yl)pyridin-3-yl)thiazol-2-yl)amino)benzenesulfonamide.TFA] |
| 360 | – | ~2000 | CCOC(=O)CCNC(=O)c1ccc(-c2csc(Nc3cc(S(N)(=O)=O)ccc3OC(C)C)n2)cn1 [Example 87, Ethyl 3-(5-(2-((2-isopropoxy-5-sulfamoylphenyl)amino)thiazol-4-yl)picolinamido)propanoate.TFA] |
| 260 | – | 330 | CC(C)Oc1ccc(S(N)(=O)=O)cc1Nc1nc(-c2ccc(C(=O)NC3CCN(C(C)C)CC3)nc2)cs1 [Example 88, 5-(2-((2-Isopropoxy-5-sulfamoylphenyl)amino)thiazol-4-yl)-N-(1-isopropylpiperidin-4-yl)picolinamide.TFA] |
| 360 | – | 350 | CC(C)Oc1ccc(S(N)(=O)=O)cc1Nc1nc(-c2ccc(C(=O)NC3CCCN(C)C3)nc2)cs1 (stereo not shown) [Example 89, 5-(2-((2-Isopropoxy-5-sulfamoylphenyl)amino)thiazol-4-yl)-N-(1-methylpiperidin-3-yl)picolinamide.TFA] |
| 970 | – | 1700 | COCCNC(=O)c1ccc(-c2csc(Nc3cc(S(N)(=O)=O)ccc3OC(C)C)n2)cn1 [Example 90, 5-(2-((2-Isopropoxy-5-sulfamoylphenyl)amino)thiazol-4-yl)-N-(2-methoxyethyl)picolinamide.TFA] |
| 2400 | – | 640 | CC(C)Oc1ccc(S(N)(=O)=O)cc1Nc1nc(-c2ccc(C(=O)NCC3CCOCC3)nc2)cs1 [Example 91, 5-(2-((2-Isopropoxy-5-sulfamoylphenyl)amino)thiazol-4-yl)-N-((tetrahydro-2H-pyran-4-yl)methyl)picolinamide.TFA] |
| 450 | – | 230 | COCCCN(C)c1ccc(-c2csc(Nc3cc(S(N)(=O)=O)ccc3OC(C)C)n2)cn1 [Example 92, 4-Isopropoxy-3-((4-(6-((3-methoxypropyl)(methyl)amino)pyridin-3-yl)thiazol-2-yl)amino)benzenesulfonamide.TFA] |
| 1900 | – | 590 | CC(C)Oc1ccc(S(N)(=O)=O)cc1Nc1nc(-c2ccc(C(=O)NC3CCOCC3)nc2)cs1 [Example 96, 5-(2-((2-Isopropoxy-5-sulfamoylphenyl)amino)thiazol-4-yl)-N-(tetrahydro-2H-pyran-4-yl)picolinamide.TFA] |
| – | 410 | > 20000 | COC(=O)c1ccc(-c2csc(Nc3cc(S(N)(=O)=O)ccc3OC(C)C)n2)cn1 [Intermediate 12, 5-[2-(2-Isopropoxy-5-sulfamoyl-phenylamino)-thiazol-4-yl]-pyridine-2-carboxylic acid methyl ester.TsOH] |
